Measurements reported in patent US11267811B2, “Small molecule inhibitors of galectin-3” (BRISTOL-MYERS SQUIBB COMPANY, priority 2017, dated 2022).
pIC50: −log10 of the molar value.

Biological target: His-tagged recombinant human Gal-3 (hGal-3) (Homo sapiens (Human), UniProt P17931)
Assay: Gal-3 HTRF assay (His-tagged hGal-3 binding to B-ASF);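 further: compounds preincubated 30 min with hGal-3, then 1 h with B-ASF, detection via terbium anti-His antibody and streptavidin d2. Control with B-ASF counts as full signal, omitting B-ASF as background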
Details: HTRF, hGal-3 15 nM, B-ASF 15 nM; read-out: hGal-3 IC50

Sequence of His-tagged recombinant human Gal-3 (hGal-3) (P17931 whole entry): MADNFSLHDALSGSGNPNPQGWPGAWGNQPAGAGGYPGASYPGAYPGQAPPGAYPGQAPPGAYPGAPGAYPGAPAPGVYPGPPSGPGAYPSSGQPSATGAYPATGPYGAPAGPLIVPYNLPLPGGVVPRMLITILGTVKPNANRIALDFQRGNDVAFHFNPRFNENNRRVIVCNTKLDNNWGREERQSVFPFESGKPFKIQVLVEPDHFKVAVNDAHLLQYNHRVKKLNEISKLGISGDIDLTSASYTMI

pIC50 | SMILES
6.52 | OC[C@H]1O[C@@H](c2nncn2-c2ccccc2OC(F)(F)F)[C@H](O)[C@@H](n2cc(-c3cc(F)c(F)c(F)c3)nn2)[C@H]1O [Example 102]
6.15 | CC(C)Oc1ccc(-n2cnnc2[C@@H]2O[C@H](CO)[C@H](O)[C@H](n3cc(-c4cc(F)c(F)c(F)c4)nn3)[C@H]2O)cc1 [Example 103]
6.09 | OC[C@H]1O[C@@H](c2nncn2-c2ccc(Oc3ccccc3)cc2)[C@H](O)[C@@H](n2cc(-c3cc(F)c(F)c(F)c3)nn2)[C@H]1O [Example 104]
6.48 | CC(C)Oc1cccc(-n2cnnc2[C@@H]2O[C@H](CO)[C@H](O)[C@H](n3cc(-c4cc(F)c(F)c(F)c4)nn3)[C@H]2O)c1 [Example 105]
6.12 | O=S(=O)(Nc1nccs1)c1ccc(-n2cnnc2[C@@H]2O[C@H](CO)[C@H](O)[C@H](n3cc(-c4cc(F)c(F)c(F)c4)nn3)[C@H]2O)cc1 [Example 106]
7.30 | OC[C@H]1O[C@@H](c2nncn2-c2ccc3ncccc3c2)[C@H](O)[C@@H](n2cc(-c3cc(F)c(F)c(F)c3)nn2)[C@H]1O [Example 107]
6.43 | OC[C@H]1O[C@@H](c2nncn2-c2cccc(OCc3ccccc3)c2)[C@H](O)[C@@H](n2cc(-c3cc(F)c(F)c(F)c3)nn2)[C@H]1O [Example 108]
6.28 | OC[C@H]1O[C@@H](c2nncn2-c2ccc(-n3cccc3)cc2)[C@H](O)[C@@H](n2cc(-c3cc(F)c(F)c(F)c3)nn2)[C@H]1O [Example 109]
5.81 | Cc1nnc(NS(=O)(=O)c2ccc(-n3cnnc3[C@@H]3O[C@H](CO)[C@H](O)[C@H](n4cc(-c5cc(F)c(F)c(F)c5)nn4)[C@H]3O)cc2)s1 [Example 110]
6.09 | OC[C@H]1O[C@@H](c2nncn2-c2ccc(-c3nnn[nH]3)cc2)[C@H](O)[C@@H](n2cc(-c3cc(F)c(F)c(F)c3)nn2)[C@H]1O [Example 111]
6.19 | OC[C@H]1O[C@@H](c2nncn2-c2cccc(-c3nnn[nH]3)c2)[C@H](O)[C@@H](n2cc(-c3cc(F)c(F)c(F)c3)nn2)[C@H]1O [Example 112]
6.32 | CS(=O)(=O)Nc1cccc(-n2cnnc2[C@@H]2O[C@H](CO)[C@H](O)[C@H](n3cc(-c4cc(F)c(F)c(F)c4)nn3)[C@H]2O)c1 [Example 113]
6.59 | CNS(=O)(=O)Cc1ccc(-n2cnnc2[C@@H]2O[C@H](CO)[C@H](O)[C@H](n3cc(-c4cc(F)c(F)c(F)c4)nn3)[C@H]2O)cc1 [Example 114]
4.95 | CN(C)S(=O)(=O)c1ccc(-n2cnnc2[C@@H]2O[C@H](CO)[C@H](O)[C@H](n3cc(-c4cc(F)c(F)c(F)c4)nn3)[C@H]2O)cc1 [Example 115]
6.17 | NS(=O)(=O)c1ccc(-n2cnnc2[C@@H]2O[C@H](CO)[C@H](O)[C@H](n3cc(-c4cc(F)c(F)c(F)c4)nn3)[C@H]2O)cc1 [Example 116]
5.84 | OC[C@H]1O[C@@H](c2nncn2-c2ccc(-n3ccnc3)cc2)[C@H](O)[C@@H](n2cc(-c3cc(F)c(F)c(F)c3)nn2)[C@H]1O [Example 117]
6.80 | OC[C@H]1O[C@@H](c2nncn2-c2cc(Cl)cc(C(F)(F)F)c2)[C@H](O)[C@@H](n2cc(-c3cc(F)c(F)c(F)c3)nn2)[C@H]1O [Example 118]
5.55 | OC[C@H]1O[C@@H](c2nncn2Cc2ccc(Cl)c(Cl)c2)[C@H](O)[C@@H](n2cc(-c3cc(F)c(F)c(F)c3)nn2)[C@H]1O [Example 119]
7.52 | OC[C@H]1O[C@@H](c2nncn2-c2ccc3ncsc3c2)[C@H](O)[C@@H](n2cc(-c3cc(F)c(F)c(F)c3)nn2)[C@H]1O [Example 120]
6.59 | O=C1CCc2cc(-n3cnnc3[C@@H]3O[C@H](CO)[C@H](O)[C@H](n4cc(-c5cc(F)c(F)c(F)c5)nn4)[C@H]3O)ccc2N1 [Example 121]
7.00 | OC[C@H]1O[C@@H](c2nncn2-c2cnc3ccccc3c2)[C@H](O)[C@@H](n2cc(-c3cc(F)c(F)c(F)c3)nn2)[C@H]1O [Example 123]
6.40 | OC[C@H]1O[C@@H](c2nncn2-c2ccc3nccnc3c2)[C@H](O)[C@@H](n2cc(-c3cc(F)c(F)c(F)c3)nn2)[C@H]1O [Example 124]
6.57 | OC[C@H]1O[C@@H](c2nncn2-c2ccc3ccncc3c2)[C@H](O)[C@@H](n2cc(-c3cc(F)c(F)c(F)c3)nn2)[C@H]1O [Example 126]
5.89 | OC[C@H]1O[C@@H](c2nncn2Cc2cccs2)[C@H](O)[C@@H](n2cc(-c3cc(F)c(F)c(F)c3)nn2)[C@H]1O [Example 127]
6.51 | CS(=O)(=O)c1cccc(-n2cnnc2[C@@H]2O[C@H](CO)[C@H](O)[C@H](n3cc(-c4cc(F)c(F)c(F)c4)nn3)[C@H]2O)c1 [Example 128]
6.22 | CS(=O)(=O)c1cc(-n2cnnc2[C@@H]2O[C@H](CO)[C@H](O)[C@H](n3cc(-c4cc(F)c(F)c(F)c4)nn3)[C@H]2O)ccc1F [Example 129]
6.49 | OC[C@H]1O[C@@H](c2nncn2Cc2nc3ccccc3s2)[C@H](O)[C@@H](n2cc(-c3cc(F)c(F)c(F)c3)nn2)[C@H]1O [Example 130]

pIC50 | SMILES
7.00 | OC[C@H]1O[C@@H](c2nncn2-c2ccc(Cl)c(Cl)c2)[C@H](O)[C@@H](n2cc(-c3cc(F)c(F)c(F)c3)nn2)[C@H]1O [Example 131, (2S,3R,4R,5R,6R)-2-(4-(3,4-dichlorophenyl)-4H-1,2,4-triazol-3-yl)-6-(hydroxymethyl)-4-(4-(3,4,5-trifluorophenyl)-1H-1,2,3-triazol-1-yl)tetrahydro-2H-pyran-3,5-diol]
7.70 | Cc1nc2ccc(-n3cnnc3[C@@H]3O[C@H](CO)[C@H](O)[C@H](n4cc(-c5cc(F)c(F)c(F)c5)nn4)[C@H]3O)cc2s1 [Example 132]
6.70 | COc1cc(-n2cnnc2[C@@H]2O[C@H](CO)[C@H](O)[C@H](n3cc(-c4cc(F)c(F)c(F)c4)nn3)[C@H]2O)ccn1 [Example 133]
6.24 | COc1cccc(-n2cnnc2[C@@H]2O[C@H](CO)[C@H](O)[C@H](n3cc(-c4cc(F)c(F)c(F)c4)nn3)[C@H]2O)n1 [Example 134]
7.52 | OC[C@H]1O[C@@H](c2nncn2-c2cc(Cl)ccc2Cl)[C@H](O)[C@@H](n2cc(-c3cc(F)c(F)c(F)c3)nn2)[C@H]1O [Example 135]
6.51 | Cn1c(=O)sc2cc(-n3cnnc3[C@@H]3O[C@H](CO)[C@H](O)[C@H](n4cc(-c5cc(F)c(F)c(F)c5)nn4)[C@H]3O)ccc21 [Example 136]
7.10 | Cc1nc2cc(F)c(-n3cnnc3[C@@H]3O[C@H](CO)[C@H](O)[C@H](n4cc(-c5cc(F)c(F)c(F)c5)nn4)[C@H]3O)cc2s1 [Example 137]
7.40 | Cc1ncc(Cl)cc1-n1cnnc1[C@@H]1O[C@H](CO)[C@H](O)[C@H](n2cc(-c3cc(F)c(F)c(F)c3)nn2)[C@H]1O [Example 138]
6.59 | Cc1nc2cccc(-n3cnnc3[C@@H]3O[C@H](CO)[C@H](O)[C@H](n4cc(-c5cc(F)c(F)c(F)c5)nn4)[C@H]3O)c2s1 [Example 139]
6.89 | OC[C@H]1O[C@@H](c2nncn2-c2cc(F)cc(Cl)c2)[C@H](O)[C@@H](n2cc(-c3cc(F)c(F)c(F)c3)nn2)[C@H]1O [Example 140]
6.89 | OC[C@H]1O[C@@H](c2nncn2-c2ccc(N3CCNCC3)c(Cl)c2)[C@H](O)[C@@H](n2cc(-c3cc(F)c(F)c(F)c3)nn2)[C@H]1O [Example 141, (2S,3R,4R,5R,6R)-2-(4-(3-chloro-4-(piperazin-1-yl)phenyl)-4H-1,2,4-triazol-3-yl)-6-(hydroxymethyl)-4-(4-(3,4,5-trifluorophenyl)-1H-1,2,3-triazol-1-yl)tetrahydro-2H-pyran-3,5-diol]
6.39 | Cc1nc2cc(-n3cnnc3[C@@H]3O[C@H](CO)[C@H](O)[C@H](n4cc(-c5cc(F)c(F)c(F)c5)nn4)[C@H]3O)ccc2s1 [Example 143]
6.64 | COc1ccc(-n2cnnc2[C@@H]2O[C@H](CO)[C@H](O)[C@H](n3cc(-c4cc(F)c(F)c(F)c4)nn3)[C@H]2O)cc1Cl [Example 145]
7.30 | CSc1cccc(-n2cnnc2[C@@H]2O[C@H](CO)[C@H](O)[C@H](n3cc(-c4cc(F)c(F)c(F)c4)nn3)[C@H]2O)c1 [Example 146]
7.22 | CSc1cc(Cl)cc(-n2cnnc2[C@@H]2O[C@H](CO)[C@H](O)[C@H](n3cc(-c4cc(F)c(F)c(F)c4)nn3)[C@H]2O)c1 [Example 147]
7.10 | Cc1nc2c(Cl)cc(-n3cnnc3[C@@H]3O[C@H](CO)[C@H](O)[C@H](n4cc(-c5cc(F)c(F)c(F)c5)nn4)[C@H]3O)cc2s1 [Example 148]
6.80 | COc1cccc(-n2cnnc2[C@@H]2O[C@H](CO)[C@H](O)[C@H](n3cc(-c4cc(F)c(F)c(F)c4)nn3)[C@H]2O)c1 [Example 152]
6.85 | N#Cc1cccc(-n2cnnc2[C@@H]2O[C@H](CO)[C@H](O)[C@H](n3cc(-c4cc(F)c(F)c(F)c4)nn3)[C@H]2O)c1 [Example 153]
7.10 | OC[C@H]1O[C@@H](c2nncn2-c2cccc(F)c2)[C@H](O)[C@@H](n2cc(-c3cc(F)c(F)c(F)c3)nn2)[C@H]1O [Example 154]
6.82 | Cc1cccc(-n2cnnc2[C@@H]2O[C@H](CO)[C@H](O)[C@H](n3cc(-c4cc(F)c(F)c(F)c4)nn3)[C@H]2O)c1 [Example 155]
7.30 | OC[C@H]1O[C@@H](c2nncn2-c2ccc(F)c(Cl)c2)[C@H](O)[C@@H](n2cc(-c3cc(F)c(F)c(F)c3)nn2)[C@H]1O [Example 156]
5.67 | OC[C@H]1O[C@@H](c2nncn2Cc2nccs2)[C@H](O)[C@@H](n2cc(-c3cc(F)c(F)c(F)c3)nn2)[C@H]1O [Example 158]
6.08 | CC(=O)Nc1ccc(-n2cnnc2[C@@H]2O[C@H](CO)[C@H](O)[C@H](n3cc(-c4cc(F)c(F)c(F)c4)nn3)[C@H]2O)cc1O [Example 159]
6.48 | Cc1nc2ccc(-n3cnnc3[C@@H]3O[C@H](CO)[C@H](O)[C@H](n4cc(-c5cc(F)c(F)c(F)c5)nn4)[C@H]3O)cc2[nH]1 [Example 160]
6.66 | COC(=O)c1cc2ccc(-n3cnnc3[C@@H]3O[C@H](CO)[C@H](O)[C@H](n4cc(-c5cc(F)c(F)c(F)c5)nn4)[C@H]3O)cc2s1 [Example 163]
6.20 | OC[C@H]1O[C@@H](c2nncn2-c2ccc3cn[nH]c3c2)[C@H](O)[C@@H](n2cc(-c3cc(F)c(F)c(F)c3)nn2)[C@H]1O [Example 164]
